In series [1] the test system is H69 parental (H69/P) human small cell lung carcinoma cell line. As to the kind of experiment: Cytotoxicity in H69 parental cells (AlamarBlue). Format: cell-based. The note with it: 5-6 days incubation, concentration required to give 50% cell kill. As for the experimental part:
(§1) The cytotoxicity of compounds of formula (I) was measured using the H69 parental (H69/P) human small cell lung carcinoma cell line and the drug resistant human small cell lung carcinoma cell line H69/LX4 which overexpresses P-glycoprotein (Pgp).
(§2) H69/P and H69/LX4 cells were pipetted into 96-well tissue culture plates and then allowed to incubate at 37° C. for 4 h. A range of concentrations from 0.01 nM to 5 μM of compounds of formula (I) or the standards TAS-103, Doxorubicin and Topotecan were then added. The plates were incubated for 5-6 days before adding AlamarBlue to each well and returning the plates to the incubator for 5-8 h to allow colour development. The cell numbers in the plates at the end of this period were directly proportional to the absorbance measured at a wavelength of 570 nm (reference wavelength 600 nm).

The subject of series [2] is COR-L23 parental (COR-L23/P) human non-small cell lung carcinoma cell line. The series can be described thus: Cytotoxicity in COR-L23 parental cells (SRB assay). Format: cell-based. As for the experimental part:
The cytotoxicity of the compounds described herein was also measured using the COR-L23 parental (COR-L23/P) human non-small cell lung carcinoma cell line and also the drug resistant human non-small cell lung carcinoma cell line COR-L23/R which overexpresses multidrug resistance associated protein (MRP). The cytotoxicity, as measured by the IC50 (concentration required to give 50% cell kill) in the L23/R cell line divided by the cytotoxicity in the L23/P cell line gives an indication of the degree to which a compound may be affected by MRP-dependant MDR and is termed the resistance factor (Rf) of the compound.
(§3) L23/P and L23/R cells were pipetted into 96-well tissue culture plates and then allowed to incubate at 37° C. for 4 h. A range of concentrations from 0.01 nM to 5 μM of compounds of formula (I) or the standards TAS-103, Doxorubicin and Topotecan were then added. The plates were incubated for 5-6 days before proliferation was assessed using the sulphurhodamine B (SRB) assay as described by Skehan et al, J Natl Cancer Inst 1990, 82, pp1107-1112.
(In general: The SRB assay estimates cell density from bound dye.)

Series [3] relates to amsacrine-resistant Jurkat human leukaemia cell line (JLA). The series can be described thus: Cytotoxicity in amsacrine-resistant Jurkat cells (JLA). The format is cell-based. The note with it: for Rf(JLA/JLC): IC50 in JLA divided by IC50 in JLC; for IC50: JLA cells (amsacrine-resistant). The method, then:
(§4) The cytotoxicity of the compounds described herein was also measured using the Jurkat human leukaemia cell line (JLC) and also the amsacrine-resistant Jurkat human leukaemia cell line (JLA) and the doxorubicin-resistant Jurkat human leukaemia cell line (JLD). The cytotoxicity, as measured by the IC50 (concentration required to give 50% cell kill) in the JLA or JLD cell line divided by the cytotoxicity in the JLC cell line gives an indication of the degree to which a compound may be affected by atypical drug resistance and is termed the resistance factor (Rf) of the compound. The method used has been described previously (Finlay et al, Eur J. Cancer 32A, 708-714, 1996). Compounds were active in the range 1 nM to 5 μM.

For series [4], the system named is COR-L23/R human non-small cell lung carcinoma cell line which overexpresses multidrug resistance associated protein (MRP). As to the kind of experiment: Cytotoxicity in drug resistant COR-L23/R cells (SRB assay). The note with it: for Rf (resistance factor): IC50 in L23/R divided by IC50 in L23/P; for IC50: L23/R cells (MRP overexpressing), 5-6 days incubation, SRB. The format is cell-based. As for the experimental part:
(§5) The cytotoxicity of the compounds described herein was also measured using the COR-L23 parental (COR-L23/P) human non-small cell lung carcinoma cell line and also the drug resistant human non-small cell lung carcinoma cell line COR-L23/R which overexpresses multidrug resistance associated protein (MRP).
as §3

Series [5] relates to Jurkat human leukaemia cell line (JLC). The series can be described thus: Cytotoxicity in Jurkat cells (JLC). The format is cell-based. As for the experimental part:
as §4

For series [6], the system named is H69/LX4 human small cell lung carcinoma cell line which overexpresses P-glycoprotein (Pgp). The series can be described thus: Cytotoxicity in drug resistant H69/LX4 cells (AlamarBlue). Conditions: for Rf (resistance factor): IC50 in H69/LX4 divided by IC50 in H69/P. As for the experimental part: as §1, §2
(In general: Alamar Blue is a resazurin reagent that responds to reducing activity.)

Series [7] relates to doxorubicin-resistant Jurkat human leukaemia cell line (JLD). As to the kind of experiment: Cytotoxicity in doxorubicin-resistant Jurkat cells (JLD). The format is cell-based. The note with it: for Rf(JLD/JLC): IC50 in JLD divided by IC50 in JLC; for IC50: JLD cells (doxorubicin-resistant). As for the experimental part: as §4
The next series concerns topoisomerase II. The series can be described thus: Stabilization of cleavable complexes with topoisomerase II. The format is biochemical. Conditions: range where an increase in cleavable complexes was observed relative to controls. From the text: (§6) Compounds were also studied for their ability to stabilize cleavable complexes in the presence of either topoisomerase I or II essentially as described previously (Finlay et al, Eur. J. Cancer 32A, 708-714, 1996). Presence of cleavable complexes was indicated by an increase in the number and intensity of bands observed after electrophoresis and autoradiography. The results are expressed as the effective concentration range where an increase in cleavable complexes was observed relative to controls in the absence of drug.

The target of another series is T1, topoisomerase I (Homo sapiens, UniProt P11387).
T1 sequence (P11387 1-765): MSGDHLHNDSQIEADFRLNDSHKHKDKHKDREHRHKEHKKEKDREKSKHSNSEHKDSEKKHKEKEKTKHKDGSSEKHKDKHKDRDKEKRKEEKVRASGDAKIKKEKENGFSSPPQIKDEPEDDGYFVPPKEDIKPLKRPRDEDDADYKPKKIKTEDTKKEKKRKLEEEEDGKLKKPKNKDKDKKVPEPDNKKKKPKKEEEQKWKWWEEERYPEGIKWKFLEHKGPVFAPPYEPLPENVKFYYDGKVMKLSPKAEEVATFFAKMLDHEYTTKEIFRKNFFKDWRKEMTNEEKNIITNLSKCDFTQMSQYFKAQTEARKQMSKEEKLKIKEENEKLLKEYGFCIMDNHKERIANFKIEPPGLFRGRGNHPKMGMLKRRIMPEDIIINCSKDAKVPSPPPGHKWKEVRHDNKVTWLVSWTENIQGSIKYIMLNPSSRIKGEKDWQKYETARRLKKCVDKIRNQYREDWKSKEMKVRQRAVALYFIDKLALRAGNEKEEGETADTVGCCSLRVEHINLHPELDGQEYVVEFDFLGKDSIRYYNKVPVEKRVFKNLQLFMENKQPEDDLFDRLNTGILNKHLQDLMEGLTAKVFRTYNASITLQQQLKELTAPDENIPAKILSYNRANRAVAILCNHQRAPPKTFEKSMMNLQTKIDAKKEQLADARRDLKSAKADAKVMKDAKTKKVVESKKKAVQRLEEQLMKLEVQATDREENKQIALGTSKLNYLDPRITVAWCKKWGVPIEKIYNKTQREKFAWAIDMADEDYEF
As to the kind of experiment: Stabilization of cleavable complexes with topoisomerase I. The format is biochemical. Conditions: range where an increase in cleavable complexes was observed relative to controls.
Source text: as §6

Series [8] in a line: Cytotoxicity in drug resistant COR-L23/R cells (SRB assay). The format is cell-based, human. Conditions: Homo sapiens, COR-L23/R; L23/R cells (MRP overexpressing), 5-6 days incubation, SRB. As for the experimental part:
as §5, §3

Where [9] appears, read: Homo sapiens, COR-L23, 5-6 days incubation.
[10] abbreviates: Homo sapiens, read-out: H69/LX4 IC50.

Like-named read-outs stand apart in the source and are kept apart here.

As to `CN(C)CCNC(=O)c1cccc2nc3ccc4cnccc4c3nc12` [Compound 2, Pyrido[4,3-α]phenazine-11-carboxylic acid (2-dimethylamino-ethyl)-amide], the IC50 amounted to 0.088 µM in [1]; 0.022 µM in series [2] (5-6 days incubation); 0.084 µM in series [3]; 0.056 µM in series [4]; 0.028 µM in series [5]; 0.056 µM in [6]. Besides, the IC50 in series [7] is 0.078 µM. The “Rf(JLA/JLC)” value in series [3] is recorded as 3. Also, the “Rf (resistance factor)” value in series [4] is given as 2.5; in series [6] it was 0.6. In series [7], the “Rf(JLD/JLC)” value amounted to 2.8.
In the case of `CN(C)CCNC(=O)c1cccc2nc3ccc4ncccc4c3nc12` [Compound 3, Pyrido[3,2-α]phenazine-11-carboxylic acid (2-dimethylamino-ethyl)-amide], the IC50 was 0.123 µM in [1]; 0.048 µM in series [2] (5-6 days incubation); 0.235 µM in series [3]; 0.071 µM in [4]; 0.074 µM in series [5]; 0.133 µM in [6]. This molecule yielded an IC50 in series [7] of 0.052 µM. Besides, the “Rf(JLA/JLC)” value in series [3] was 2.8. For the same molecule, the “Rf (resistance factor)” value came out at 1.5 in series [4] and 1.1 in series [6]. Also, in [7], the “Rf(JLD/JLC)” value amounted to 0.7.
In the case of `COc1nccc2c1ccc1nc3cccc(C(=O)NCCN(C)C)c3nc12` [Compound 5, 4-Methoxypyrido[4,3-α]phenazine-11-carboxylic acid (2-dimethylamino-ethyl)-amide], the IC50 in [1] amounted to 0.021 µM; in series [2] (5-6 days incubation), 0.014 µM; in [3] it was 0.012 µM; in series [4], 0.016 µM; in series [5], 0.017 µM; in series [6] it was 0.026 µM. For the same molecule, in [7], the IC50 came to 0.012 µM. Further, the “Effective concentration range, Topoisomerase II” value in the series with topoisomerase II lay within 0.1 to 3.0 µM. Further, the “Rf(JLA/JLC)” value in series [3] was found to be 0.7. Besides, the “Rf (resistance factor)” value in [4] came to 1.1; in series [6], 1.3. For the same molecule, in series [7], the “Rf(JLD/JLC)” value was found to be 0.7. Besides, on topoisomerase I, the “Effective concentration range, Topoisomerase I” value was 0.1 to 3.0 µM.
Take `COc1nccc2c1ccc1nc3cccc(C(=O)N[C@H](C)CN(C)C)c3nc12` [Compound 6, 4-Methoxypyrido[4,3-α]phenazine-11-carboxylic acid (2-dimethylamino-1-(R)-methyl-ethyl)-amide]: the IC50 in [1] came to 0.024 µM; in [2] (5-6 days incubation) it was 0.012 µM; in series [3], 0.007 µM; in series [4] it was 0.015 µM; in series [5], 0.01 µM; in series [6], 0.029 µM. The IC50 in series [7] is 0.009 µM. Besides, in the series with topoisomerase II, the “Effective concentration range, Topoisomerase II” value was 0.1 to 3.0 µM. In addition, the “Rf(JLA/JLC)” value in series [3] was 0.7. Further, the “Rf (resistance factor)” value is reported as 1.3 in series [4] and 1.2 in series [6]. In series [7], the “Rf(JLD/JLC)” value came to 0.9. In addition, the “Effective concentration range, Topoisomerase I” value at topoisomerase I was in the range of 0.1 to 3.0 µM.
As for `COc1nccc2c1ccc1nc3cccc(C(=O)N[C@H](CO)CN(C)C)c3nc12` [Compound 9, 4-Methoxypyrido[4,3-α]phenazine-11-carboxylic acid (2-dimethylamino-1-(S)-hydroxymethyl-ethyl)-amide], the IC50 in [1] worked out at 0.024 µM; in series [2] (5-6 days incubation), 0.004 µM; in series [4] it was 0.006 µM; in [6], 0.028 µM. Also, the “Rf (resistance factor)” value in series [4] is reported as 1.5; in [6], 1.2.
In the case of `CN(C)CCNC(=O)c1cccc2nc3ccc4cnn(C)c4c3nc12` [Compound 13, 1-Methyl-1H-pyrazolo[3,4-α]phenazine-10-carboxylic acid (2-dimethylamino-ethyl)-amide], the IC50 in [1] worked out at 0.109 µM; in series [3], 0.044 µM; in series [5], 0.044 µM; in series [6] it was 0.097 µM; in series [7], 0.048 µM. Besides, the “Rf(JLA/JLC)” value in series [3] came to 1. Besides, in series [6], the “Rf (resistance factor)” value was found to be 0.9. Moreover, the “Rf(JLD/JLC)” value in series [7] worked out at 1.1.
Regarding `COc1cccc2c1C(=O)c1c(O)c3c(c(O)c1C2=O)C[C@@](O)(C(=O)CO)C[C@@H]3O[C@H]1C[C@H](N)[C@H](O)[C@H](C)O1` [Doxorubicin, reference compound], the IC50 in [2] (setting [9]) came to 0.0203 µM; in [3] (Homo sapiens, Jurkat) it was 0.0259 µM; in [8] it was 0.327 µM; in series [5] (Homo sapiens, Jurkat), 0.007 µM; in series [6] (setting [10]), 3.7 µM; in [7] (Homo sapiens, Jurkat) it was 0.109 µM. The “Rf(JLA/JLC)” value in [3] is reported as 3.7. Besides, the “Rf (resistance factor)” value in [4] is 16.1; in series [6], 135.
`CN(C)CCNc1nc2cc(O)ccc2c2c1C(=O)c1ccccc1-2` [TAS-103, reference compound]: the IC50 in [1] came out at 0.021 µM; in [2] (5-6 days incubation), 0.0163 µM; in series [3], 0.302 µM; in [4], 0.022 µM; in [5] it was 0.0054 µM; in series [6] (read-out: H69/LX4 IC50, H69/LX4 cells (Pgp overexpressing), 5-6 days incubation), 0.022 µM. The molecule also registered an IC50 in series [7] of 0.384 µM. In addition, the “Effective concentration range, Topoisomerase II” value with topoisomerase II fell in the range of 0.3 to 10.0 µM. In addition, the “Rf(JLA/JLC)” value in series [3] came to 55.9. In addition, the “Rf (resistance factor)” value is recorded as 1.3 in [4] and 1.1 in series [6]. Also, the “Rf(JLD/JLC)” value in series [7] is on record as 71.1. The “Effective concentration range, Topoisomerase I” value on topoisomerase I fell in the range of 0.3 to 10.0 µM.
Turning to `CC[C@@]1(O)C(=O)OCc2c1cc1n(c2=O)Cc2cc3c(CN(C)C)c(O)ccc3nc2-1` [Topotecan, reference compound], the IC50 in [2] (setting [9]) amounted to 0.0136 µM; in series [8] it was 0.0208 µM; in [6] (setting [10]) it was 0.0615 µM. The results for the “Rf (resistance factor)” value in series [4] and in series [6] were 1.5 and 3.9, respectively.

Values taken from patent publication US6552021B2, “Pharmaceutical compounds” (Xenova Limited, priority 2000, dated 2003).
